# Measured values as given in paper PMC12087653 (Autophagy, 2025).
# B1: CeEPG5 LIR2 peptide (516GEANEFSFVTINE528) (peptide)
# peptide: GEANEFSFVTINE
# B2: CeEPG5 LIR1 peptide (505STWEILADDDD515) (peptide)
# peptide: STWEILADDDD
# How the values were obtained:
# LGG-1 = LGG-1 (Caenorhabditis elegans, UniProt Q09490); settings: cited from earlier work
# GABARAP = settings: full-length HsEPG5; cited from earlier work
# HeLa cells = settings: Rab7 colocalization; cited from earlier work
# [1] = test system: STX17-SNAP29-VAMP8 complex; settings: in vitro fusion assay; cited from earlier work
# LC3/GABARAP proteins = settings: cited from earlier work
# His-LGG-1 = His-LGG-1 (C. elegans, UniProt Q09490 1-116); experiment: ITC
# Sequence of His-LGG-1 (Q09490 1-116): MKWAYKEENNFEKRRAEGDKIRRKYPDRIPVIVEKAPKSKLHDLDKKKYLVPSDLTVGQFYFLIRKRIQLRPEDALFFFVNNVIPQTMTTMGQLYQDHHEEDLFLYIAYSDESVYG
# Sequence of LGG-1 (Q09490 whole entry): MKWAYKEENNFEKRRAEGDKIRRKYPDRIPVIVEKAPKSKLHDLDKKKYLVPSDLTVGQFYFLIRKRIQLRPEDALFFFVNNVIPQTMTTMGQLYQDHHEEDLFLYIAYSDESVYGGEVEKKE
molecule,measurement,setting,value
"CeEPG5: C. elegans EPG-5, recombinant",binding to LGG-1,LGG-1,binds the C. elegans Atg8 protein LGG-1 via its tandem LIR
HsEPG5: human EPG5 (ectopic P-granules 5 autophagy tethering factor; ~290 kDa),Atg8 subfamily preference of HsEPG5,GABARAP,preferentially binds members of the GABARAP subfamily
same,formation of puncta / localization in cells,HeLa cells,could form small puncta that colocalize with lysosomal surface-residing Rab7 in HeLa cells
same,effect on STX17-SNAP29-VAMP8 complex formation,[1],modestly enhances the formation of the STX17-SNAP29-VAMP8 complex
same,dependence of peri-nuclear localization on LC3/GABARAP proteins,LC3/GABARAP proteins,HsEPG5 localization to the peri-nuclear region is independent of LC3/GABARAP proteins
B1,Kd,His-LGG-1,10.4 µM
B2,Kd,His-LGG-1,1.46 µM
